Measured values as given in patent US20240294499A1, “TARGETED PROTEIN DEGRADATION USING BIFUNCTIONAL COMPOUNDS THAT BIND UBIQUITIN LIGASE AND TARGET MCL-1 PROTEIN” (Captor Therapeutics S.A., priority 2021, published 2024).

Columns and labels:
[1] = system: MV-4-11 cells; assay: Cell viability assay (CellTiter-Glo), MV-4-11; type: cell-based; settings: Homo sapiens, MV4-11, 24 hours incubation, 1% FBS, read-out: Average pIC50 by molecule MV-4-11 (converted)
Method in brief: (§1)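 Luminescent ATP readout (CellTiter-Glo) at 24 hours measured viability, expressed relative to DMSO-treated wells. Compound was added directly to the medium as a 9–12-point threefold series starting at 30 uM, at 0.5% final DMSO. The medium contained FBS reduced to 1%.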

[2] = system: ARH-77 cells; assay: Cell viability assay (CellTiter-Glo), ARH-77; type: cell-based; settings: Homo sapiens, ARH-77, 24 hours incubation, 1% FBS, read-out: Average pIC50 by molecule ARH-77 (converted)
Method in brief: as §1

[3] = target: T1, [MCL-1]-[compound of formula (I)]-[CRBN/DDB1] complex (Homo sapiens, UniProt Q07820+Q96SW2); assay: HTRF ternary complex assay; type: binding; settings: ternary complex formation; read-out: HTRF ternary complex Average pEC50 by molecule (converted)
Experimental: The effect of the bifunctional compounds of the invention on the formation of a ternary complex composed of [MCL-1]-[compound of formula (I)]-[CRBN/DDB1] was investigated.
Mix of protein solution were prepared: • 48 nM hMcl-1 and 105.6 nM CRBN was prepared in PPI Europium detection buffer with 2 mM DTT. • Acceptor and donor stock solutions were diluted 100 times in PPI Europium detection buffer. Equal volumes of both reagents were mixed. Finally giving 3 nM of Streptavidin-Eu cryptate […] and 6.67 nM of Anti-6× his-d2 […].
5 μl of protein mix was dispensed to all wells. The tested compounds in dose-response were dispensed onto a white 384-well low volume plate (Greiner, 784075). DMSO was backfilled to all wells, resulting in a final DMSO content of 0.5%. Wells containing only DMSO served as background. Next, 5 μl of solution with donor and acceptor was added to the wells.
The plate was sealed with transparent film and shaken using a VibroTurbulator for 60 see at level 3. The plate was then spun down shortly (10 s, 1000 rcf) and incubated at 25° C. for 180 min.
The read-out was performed with plate reader (Pherastar, BMG Labtech) in time resolved fluorescence mode. Filterset: TR 337 665 620.
The results were analyzed as follows: • 1) an average of fluorescence for background signal was calculated and used as a negative control; • 2) raw fluorescence values for tested compounds were normalized against negative controls; • 3) bell shape curve was fitted to a gaussian distribution using a non-linear least squares Gauss-Newton algorithm; • 4) EC50 and pEC50 values were determined.

[4] = target: T1, [MCL-1]-[compound of formula (I)]-[CRBN/DDB1] complex; assay: AlphaLISA dose response ternary complex formation assay; type: binding; settings: read-out: AlphaLISA dose response Average pEC50 by molecule (converted)
Method in brief: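 EC50 comes from dose–response of AlphaLISA luminescence (excitation 680, emission 615 nm), normalised between DMSO background and an internal positive control, with concentrations past the hook point dropped. Ternary complex formed by mixing bead-bound biotin-hMCL-1 and His-CRBN/DDB1 (protein solutions 40 and 200 nM) with compound in 2% DMSO, 30 min, 25 °C.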

T1 sequence (Q07820 whole entry): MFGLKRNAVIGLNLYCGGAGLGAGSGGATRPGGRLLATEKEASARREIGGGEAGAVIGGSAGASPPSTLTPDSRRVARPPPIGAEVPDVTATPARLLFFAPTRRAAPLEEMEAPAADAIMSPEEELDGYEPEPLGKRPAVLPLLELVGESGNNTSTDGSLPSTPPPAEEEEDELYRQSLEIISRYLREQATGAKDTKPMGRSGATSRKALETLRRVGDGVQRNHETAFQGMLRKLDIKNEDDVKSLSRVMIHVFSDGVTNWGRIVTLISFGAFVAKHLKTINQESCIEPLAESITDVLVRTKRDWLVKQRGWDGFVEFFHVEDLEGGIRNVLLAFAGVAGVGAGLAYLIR
T1 sequence (Q96SW2 whole entry): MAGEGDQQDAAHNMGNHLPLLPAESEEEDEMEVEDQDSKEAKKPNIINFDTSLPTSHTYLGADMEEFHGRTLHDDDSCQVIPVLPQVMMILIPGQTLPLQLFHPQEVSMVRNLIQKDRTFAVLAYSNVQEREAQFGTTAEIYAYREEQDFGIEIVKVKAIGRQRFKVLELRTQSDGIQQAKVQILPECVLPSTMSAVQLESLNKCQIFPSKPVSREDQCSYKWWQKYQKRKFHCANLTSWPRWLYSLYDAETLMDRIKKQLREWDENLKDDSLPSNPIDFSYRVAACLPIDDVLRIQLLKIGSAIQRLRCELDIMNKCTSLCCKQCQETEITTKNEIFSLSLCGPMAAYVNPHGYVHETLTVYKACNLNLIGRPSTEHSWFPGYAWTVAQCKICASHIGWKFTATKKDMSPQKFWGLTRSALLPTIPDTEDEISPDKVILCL
T1 sequence (Q16531 whole entry partner): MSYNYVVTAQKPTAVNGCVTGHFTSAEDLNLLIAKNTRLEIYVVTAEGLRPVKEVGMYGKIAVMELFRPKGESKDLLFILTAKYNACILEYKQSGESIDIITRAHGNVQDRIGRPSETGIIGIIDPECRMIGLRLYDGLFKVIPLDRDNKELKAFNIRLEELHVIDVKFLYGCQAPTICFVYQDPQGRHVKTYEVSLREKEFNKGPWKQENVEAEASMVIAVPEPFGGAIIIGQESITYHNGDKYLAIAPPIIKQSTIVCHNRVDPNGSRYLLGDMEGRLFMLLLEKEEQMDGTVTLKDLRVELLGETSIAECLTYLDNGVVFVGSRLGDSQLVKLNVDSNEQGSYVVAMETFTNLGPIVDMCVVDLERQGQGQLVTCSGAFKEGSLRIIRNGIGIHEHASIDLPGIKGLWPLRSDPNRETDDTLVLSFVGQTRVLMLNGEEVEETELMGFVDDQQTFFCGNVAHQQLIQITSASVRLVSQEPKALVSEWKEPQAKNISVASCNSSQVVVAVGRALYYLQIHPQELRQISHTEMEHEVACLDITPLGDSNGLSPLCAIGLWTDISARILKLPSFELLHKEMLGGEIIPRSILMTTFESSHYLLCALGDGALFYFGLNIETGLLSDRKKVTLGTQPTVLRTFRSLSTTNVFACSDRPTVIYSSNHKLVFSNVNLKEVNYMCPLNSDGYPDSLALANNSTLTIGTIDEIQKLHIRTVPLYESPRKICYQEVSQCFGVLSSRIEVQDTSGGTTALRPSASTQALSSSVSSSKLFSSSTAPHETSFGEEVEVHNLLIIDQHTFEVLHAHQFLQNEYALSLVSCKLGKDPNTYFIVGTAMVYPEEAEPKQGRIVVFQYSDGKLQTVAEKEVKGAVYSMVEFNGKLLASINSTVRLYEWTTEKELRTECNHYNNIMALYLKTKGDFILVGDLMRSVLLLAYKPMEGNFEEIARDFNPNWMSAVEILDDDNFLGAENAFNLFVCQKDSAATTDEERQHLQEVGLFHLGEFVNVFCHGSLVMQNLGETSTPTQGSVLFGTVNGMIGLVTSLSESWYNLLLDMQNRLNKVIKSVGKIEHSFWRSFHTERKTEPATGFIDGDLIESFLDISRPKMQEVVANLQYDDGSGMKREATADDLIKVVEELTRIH

Compound | IC50 [1] [nM] | EC50 [3] [nM] | EC50 [4] [nM] | IC50 [2] [nM]
Cc1nc2cc(NCC(=O)N3CCN(CCn4c(C(=O)O)c(CCCOc5cccc6cc(F)ccc56)c5ccc(Cl)c(-c6c(C)nn(C)c6C)c54)CC3)ccc2cc1C1CCC(=O)NC1=O (centres unmarked) [Compound 285, 6-Chloro-1-(2-(4-((3-(2,6-dioxopiperidin-3-yl)-2-methylquinolin-7-yl)glycyl)piperazin-1-yl)ethyl)-3-(3-((6-fluoronaphthalen-1-yl)oxy)propyl)-7-(1,3,5-trimethyl-1H-pyrazol-4-yl)-1H-indole-2-carboxylic acid] | ≤ 100 | < 10 | – | > 10000
Cc1nn(C)c(C)c1-c1c(Cl)ccc2c(CCCOc3cccc4cc(F)ccc34)c(C(=O)O)n(CCN3CCC(C(=O)N4CCN(c5cc6c(cc5F)C(=O)N(C5CCC(=O)NC5=O)C6=O)CC4)CC3)c12 (centres unmarked) [Compound 333, 6-Chloro-1-[2-(4-{4-[2-(2,6-dioxopiperidin-3-yl)-6-fluoro-1,3-dioxo-2,3-dihydro-1H-isoindol-5-yl]piperazine-1-carbonyl}piperidin-1-yl)ethyl]-3-{3-[(6-fluoronaphthalen-1-yl)oxy]propyl}-7-(1,3,5-trimethyl-1H-pyrazol-4-yl)-1H-indole-2-carboxylic acid] | ≤ 1000 | < 10 | – | –
Cc1nn(C)c(C)c1-c1c(Cl)ccc2c(CCCOc3cccc4cc(F)ccc34)c(C(=O)O)n(CCOCCCn3c(C)nc4c(C(=O)NC5CCC(=O)NC5=O)cccc43)c12 (centres unmarked) [Compound 282, 6-Chloro-1-[2-(3-{4-[(2,6-dioxopiperidin-3-yl)carbamoyl]-2-methyl-1H-1,3-benzodiazol-1-yl}propoxy)ethyl]-3-{3-[(6-fluoronaphthalen-1-yl)oxy]propyl}-7-(1,3,5-trimethyl-1H-pyrazol-4-yl)-1H-indole-2-carboxylic acid] | ≤ 31.6 | < 100 | – | > 3160
Cc1nc2cc(OCC(=O)N3CCN(CCn4c(C(=O)O)c(CCCOc5cccc6cc(F)ccc56)c5ccc(Cl)c(-c6c(C)nn(C)c6C)c54)CC3)ccc2cc1C1CCC(=O)NC1=O (centres unmarked) [Compound 288, 6-Chloro-1-(2-(4-(2-((3-(2,6-dioxopiperidin-3-yl)-2-methylquinolin-7-yl)oxy)acetyl)piperazin-1-yl)ethyl)-3-(3-((6-fluoronaphthalen-1-yl)oxy)propyl)-7-(1,3,5-trimethyl-1H-pyrazol-4-yl)-1H-indole-2-carboxylic acid] | – | < 100 | – | –
Cc1nn(C)c(C)c1-c1c(Cl)ccc2c(CCCOc3cccc4cc(F)ccc34)c(C(=O)O)n(CCC3CCC(NC(=O)COc4cccc5c4CN(C4CCC(=O)NC4=O)C5=O)CN3C)c12 (centres unmarked) [Compound 306, 6-Chloro-1-{2-[5-(2-{[2-(2,6-dioxopiperidin-3-yl)-1-oxo-2,3-dihydro-1H-isoindol-4-yl]oxy}acetamido)-1-methylpiperidin-2-yl]ethyl}-3-{3-[(6-fluoronaphthalen-1-yl)oxy]propyl}-7-(1,3,5-trimethyl-1H-pyrazol-4-yl)-1H-indole-2-carboxylic acid] | ≤ 100 | < 10 | – | > 10000
Cc1nn(C)c(C)c1-c1c(Cl)ccc2c(CCCOc3cccc4cc(F)ccc34)c(C(=O)O)n(CCN3CC4(CCN(C(=O)COc5cccc6c5CN(C5CCC(=O)NC5=O)C6=O)CC4)C3)c12 (centres unmarked) [Compound 302, 6-Chloro-1-(2-(7-(2-((2-(2,6-dioxopiperidin-3-yl)-1-oxoisoindolin-4-yl)oxy)acetyl)-2,7-diazaspiro[3.5]nonan-2-yl)ethyl)-3-(3-((6-fluoronaphthalen-1-yl)oxy)propyl)-7-(1,3,5-trimethyl-1H-pyrazol-4-yl)-1H-indole-2-carboxylic acid] | – | < 10 | – | –
Cc1nn(C)c(C)c1-c1c(Cl)ccc2c(CCCOc3cccc4cc(F)ccc34)c(C(=O)O)n(CCC3CN(C(=O)COc4cccc5c4CN(C4CCC(=O)NC4=O)C5=O)C3)c12 (centres unmarked) [Compound 299, 6-Chloro-1-(2-(1-(2-((2-(2,6-dioxopiperidin-3-yl)-1-oxoisoindolin-4-yl)oxy)acetyl)azetidin-3-yl)ethyl)-3-(3-((6-fluoronaphthalen-1-yl)oxy)propyl)-7-(1,3,5-trimethyl-1H-pyrazol-4-yl)-1H-indole-2-carboxylic acid] | ≤ 100 | < 100 | – | > 10000

Now from value to molecule, other results behind:

IC50 [1] [nM] | EC50 [3] [nM] | EC50 [4] [nM] | Compound | IC50 [2] [nM]
≤ 100 | < 100 | < 100 | Cc1nn(C)c(C)c1-c1c(Cl)ccc2c(CCCOc3cccc4ccc(F)cc34)c(C(=O)O)n(CCN3CCN(C(=O)COc4cccc5c4CN(C4CCC(=O)NC4=O)C5=O)CC3)c12 (centres unmarked) [Compound 354, 6-Chloro-1-(2-(4-(2-((2-(2,6-dioxopiperidin-3-yl)-1-oxoisoindolin-4-yl)oxy)acetyl)piperazin-1-yl)ethyl)-3-(3-((7-fluoronaphthalen-1-yl)oxy)propyl)-7-(1,3,5-trimethyl-1H-pyrazol-4-yl)-1H-indole-2-carboxylic acid] | > 10000
≤ 100 | < 10 | – | Cc1nn(C)c(C)c1-c1c(Cl)ccc2c(CCCOc3cccc4cc(F)ccc34)c(C(=O)O)n(CCN3CCC(N4CCN(c5cc6c(cc5F)C(=O)N(C5CCC(=O)NC5=O)C6=O)CC4)CC3)c12 (centres unmarked) [Compound 336, 6-Chloro-1-[2-(4-{4-[2-(2,6-dioxopiperidin-3-yl)-6-fluoro-1,3-dioxo-2,3-dihydro-1H-isoindol-5-yl]piperazin-1-yl}piperidin-1-yl)ethyl]-3-{3-[(6-fluoronaphthalen-1-yl)oxy]propyl}-7-(1,3,5-trimethyl-1H-pyrazol-4-yl)-1H-indole-2-carboxylic acid] | > 10000
≤ 100 | < 10 | – | Cc1nn(C)c(C)c1-c1c(Cl)ccc2c(CCCOc3cccc4cc(F)ccc34)c(C(=O)O)n(CCN3CCN(CC4CN(c5cc6c(cc5F)C(=O)N(C5CCC(=O)NC5=O)C6=O)C4)CC3)c12 (centres unmarked) [Compound 334, 6-Chloro-1-(2-(4-((1-(2-(2,6-dioxopiperidin-3-yl)-6-fluoro-1,3-dioxoisoindolin-5-yl)azetidin-3-yl)methyl)piperazin-1-yl)ethyl)-3-(3-((6-fluoronaphthalen-1-yl)oxy)propyl)-7-(1,3,5-trimethyl-1H-pyrazol-4-yl)-1H-indole-2-carboxylic acid] | > 3160
≤ 316 | < 10 | – | Cc1nn(C)c(C)c1-c1c(Cl)ccc2c(CCCOc3cccc4cc(F)ccc34)c(C(=O)O)n(CCN3CC(N4CCN(c5cc6c(cc5F)C(=O)N(C5CCC(=O)NC5=O)C6=O)CC4)C3)c12 (centres unmarked) [Compound 337, 6-Chloro-1-(2-(3-(4-(2-(2,6-dioxopiperidin-3-yl)-6-fluoro-1,3-dioxoisoindolin-5-yl)piperazin-1-yl)azetidin-1-yl)ethyl)-3-(3-((6-fluoronaphthalen-1-yl)oxy)propyl)-7-(1,3,5-trimethyl-1H-pyrazol-4-yl)-1H-indole-2-carboxylic acid] | > 10000
≤ 316 | < 100 | – | O=C1CCC(N2Cc3c(OCC(=O)N4CCN(CCn5c(C(=O)O)c(CCCOc6cccc7cc(F)ccc67)c6ccc(Cl)c(-c7cnn8cccnc78)c65)CC4)cccc3C2=O)C(=O)N1 (centres unmarked) [Compound 348, 6-Chloro-1-(2-(4-(2-((2-(2,6-dioxopiperidin-3-yl)-1-oxoisoindolin-4-yl)oxy)acetyl)piperazin-1-yl)ethyl)-3-(3-((6-fluoronaphthalen-1-yl)oxy)propyl)-7-(pyrazolo[1,5-a]pyrimidin-3-yl)-1H-indole-2-carboxylic acid] | > 10000
≤ 31.6 | < 10 | – | Cc1nn(C)c(C)c1-c1c(Cl)ccc2c(CCCOc3cccc4cc(F)ccc34)c(C(=O)O)n(CCN3CCN(C4CN(c5cc6c(cc5F)C(=O)N(C5CCC(=O)NC5=O)C6=O)C4)CC3)c12 (centres unmarked) [Compound 335, 6-Chloro-1-(2-(4-(1-(2-(2,6-dioxopiperidin-3-yl)-6-fluoro-1,3-dioxoisoindolin-5-yl)azetidin-3-yl)piperazin-1-yl)ethyl)-3-(3-((6-fluoronaphthalen-1-yl)oxy)propyl)-7-(1,3,5-trimethyl-1H-pyrazol-4-yl)-1H-indole-2-carboxylic acid] | > 3160
